According to patent US11008323B2, “Substituted tricyclic 1,4-benzodiazepinone derivatives as allosteric modulators of group II metabotropic glutamate receptors” (Domain Therapeutics, priority 2015, dated 2021):
Where a name gives a salt, the structure may show the parent alone.

melting point [°C] | Compound
218 to 222 | CN1C(=O)c2cc(-c3ccccc3)cn2-c2cc(-c3cccnc3)ccc2C12CC2 (as salt: hydrochloride) [Example 93, 5-Methyl-2-phenyl-9-pyridin-3-yl-spiro[benzo[f]pyrrolo[1,2-a][1,4]diazepine-6,1′-cyclopropan]-4(5H)-one]
158 to 168 | Cc1ncccc1-c1ccc2c(c1)-n1cc(-c3cnco3)cc1C(=O)N(C)C21CC1 (as salt: hydrochloride) [Example 182]
200 to 215 | Cc1ccc(-c2ccc3c(c2)-n2cc(-c4ccccc4)cc2C(=O)N(C)C32CC2)cn1 (as salt: hydrochloride) [Example 103, 5-Methyl-2-phenyl-9-(6-methyl-pyridin-3-yl)-spiro[benzo[f]pyrrolo[1,2-a][1,4]diazepine-6,1′-cyclopropan]-4(5H)-one]
229 to 237 | Cc1ncccc1-c1ccc2c(c1)-n1cc(-c3ccnn3C)cc1C(=O)N(C)C21CC1 (as salt: hydrochloride) [Example 160]
212 to 220 | Cc1cncc(-c2ccc3c(c2)-n2cc(-c4ccccc4)cc2C(=O)N(C)C32CC2)c1 (as salt: hydrochloride) [Example 98, 5-Methyl-2-phenyl-9-(5-methyl-pyridin-3-yl)-spiro[benzo[f]pyrrolo[1,2-a][1,4]diazepine-6,1′-cyclopropan]-4(5H)-one]
185 to 190 | Cc1ncccc1-c1ccc2c(c1)-n1cc(-c3ccccc3F)cc1C(=O)N(C)C21CC1 (as salt: hydrochloride) [Example 151]
> 250 | CNc1ccc(-c2ccc3c(c2)-n2cc(-c4ccccc4)cc2C(=O)N(C)C32CC2)cn1 (as salt: hydrochloride) [Example 118, 5-Methyl-2-phenyl-9-(6-methylamino-pyridin-3-yl)-spiro[benzo[f]pyrrolo[1,2-a][1,4]diazepine-6,1′-cyclopropan]-4(5H)-one]
> 250 | Cc1ncccc1-c1ccc2c(c1)-n1cc(-c3cnc[nH]3)cc1C(=O)N(C)C21CC1 (as salt: hydrochloride) [Example 183]
209 to 212 | CCc1ccc(-c2ccc3c(c2)-n2cc(-c4ccccc4)cc2C(=O)N(C)C32CC2)cn1 (as salt: hydrochloride) [Example 112, 5-methyl-2-phenyl-9-(6-ethylpyridin-3-yl)-spiro[benzo[f]pyrrolo[1,2-a][1,4]diazepine-6,1′-cyclopropan]-4(5H)-one]
209 to 213 | CN(C)c1ncccc1-c1ccc2c(c1)-n1cc(-c3ccccc3)cc1C(=O)N(C)C21CC1 (as salt: hydrochloride) [Example 119, 5-Methyl-2-phenyl-9-(2-dimethylamino-pyridin-3-yl)-spiro[benzo[f]pyrrolo[1,2-a][1,4]diazepine-6,1′-cyclopropan]-4(5H)-one]
179 to 183 | CCc1ncccc1-c1ccc2c(c1)-n1cc(-c3ccccc3)cc1C(=O)N(C)C21CC1 (as salt: hydrochloride) [Example 99, 5-Methyl-2-phenyl-9-(2-ethyl-pyridin-3-yl)-spiro[benzo[f]pyrrolo[1,2-a][1,4]diazepine-6,1′-cyclopropan]-4(5H)-one]
200 to 208 | CN(C)c1ccc(-c2ccc3c(c2)-n2cc(-c4ccccc4)cc2C(=O)N(C)C32CC2)cn1 (as salt: hydrochloride) [Example 114, 5-Methyl-2-phenyl-9-(6-dimethylamino-pyridin-3-yl)-spiro[benzo[f]pyrrolo[1,2-a][1,4]diazepine-6,1′-cyclopropan]-4(5H)-one]
240 to 245 | Cc1ncccc1-c1ccc2c(c1)-n1cc(-c3nccs3)cc1C(=O)N(C)C21CC1 (as salt: hydrochloride) [Example 157]
174 to 180 | Cc1ncccc1-c1ccc2c(c1)-n1cc(-c3ccccc3)cc1C(=O)N(C)C21CC1 (as salt: hydrochloride) [Example 95, 5-Methyl-2-phenyl-9-(2-methyl-pyridin-3-yl)-spiro[benzo[f]pyrrolo[1,2-a][1,4]diazepine-6,1′-cyclopropan]-4(5H)-one]
206 to 214 | Cc1ccc(-c2ccc3c(c2)-n2cc(-c4ccccc4)cc2C(=O)N(C)C32CC2)c(C)n1 (as salt: hydrochloride) [Example 107, 5-Methyl-2-phenyl-9-(2,6-dimethyl-pyridin-3-yl)-spiro[benzo[f]pyrrolo[1,2-a][1,4]diazepine-6,1′-cyclopropan]-4(5H)-one]
226 to 230 | Cc1ncccc1-c1ccc2c(c1)-n1cc(-c3ccc(F)cc3)cc1C(=O)N(C)C21CC1 (as salt: hydrochloride) [Example 150]

The remaining lines, values behind:

Compound | melting point [°C]
Cc1ncccc1-c1ccc2c(c1)-n1c(F)ccc1C(=O)N(C)C21CC1 (as salt: hydrochloride) [Example 81, 9-(2-Methyl-pyridin-3-yl)-1-fluoro-5-methyl-spiro[benzo[f]pyrrolo[1,2-a][1,4]diazepine-6,1′-cyclopropan]-4(5H)-one] | 150 to 158
Cc1ccc(-c2ccc3c(c2)-n2cccc2C(=O)N(C)C32CC2)cn1 (as salt: hydrochloride) [Example 25, 5-Methyl-9-(6-methylpyridin-3-yl)-spiro[benzo[f]pyrrolo[1,2-a][1,4]diazepine-6,1′-cyclopropan]-4(5H)-one] | 205 to 215
Cc1ncccc1-c1cccc2c1-n1cccc1C(=O)N(C)C21CC1 (as salt: hydrochloride) [Example 92, 10-(2-Methyl-pyridin-3-yl)-5-methyl-spiro[benzo[f]pyrrolo[1,2-a][1,4]diazepine-6,1′-cyclopropan]-4(5H)-one] | 250
Cc1ncccc1-c1ccc2c(c1)-n1cc(CC3CCCC3)cc1C(=O)N(C)C21CC1 (as salt: hydrochloride) [Example 196] | 165 to 176
CN1C(=O)c2cccn2-c2cc(-c3ccc(N4CCOCC4)nc3)ccc2C12CC2 (as salt: hydrochloride) [Example 42, 5-Methyl-9-(6-morpholin-4-yl-pyridin-3-yl)-spiro[benzo[f]pyrrolo[1,2-a][1,4]diazepine-6,1′-cyclopropan]-4(5H)-one] | 191 to 199
Cc1ccc(-c2ccc3c(c2)-n2cccc2C(=O)N(C)C32CC2)c(C)n1 (as salt: hydrochloride) [Example 56, 5-Methyl-9-(2,6-dimethylpyridin-3-yl)-spiro[benzo[f]pyrrolo[1,2-a][1,4]diazepine-6,1′-cyclopropan]-4(5H)-one] | > 250
CN1C(=O)c2cccn2-c2cc(C3=CCNCC3)ccc2C12CC2 (as salt: hydrochloride) [Example 46, 5-Methyl-9-(1,2,3,6-tetrahydro-pyridin-4-yl)-spiro[benzo[f]pyrrolo[1,2-a][1,4]diazepine-6,1′-cyclopropan]-4(5H)-one] | 208 to 215
CN1C(=O)c2cccn2-c2cc(-c3cccnc3C3CC3)ccc2C12CC2 (as salt: hydrochloride) [Example 62, 5-Methyl-9-(2-cyclopropylpyridin-3-yl)-spiro[benzo[f]pyrrolo[1,2-a][1,4]diazepine-6,1′-cyclopropan]-4(5H)-one] | 160 to 180
Cc1ncccc1-c1cc(F)c2c(c1)-n1cccc1C(=O)N(C)C21CC1 (as salt: hydrochloride) [Example 73, 7-Fluoro-5-methyl-9-(2-methyl-pyridin-3-yl)-spiro[benzo[f]pyrrolo[1,2-a][1,4]diazepine-6,1′-cyclopropan]-4(5H)-one] | 174 to 188
Cc1ccc(-c2ccc3c(c2)-n2cc(-c4nccs4)cc2C(=O)N(C)C32CC2)cn1 (as salt: hydrochloride) [Example 158] | 228 to 239
CCCc1ncccc1-c1ccc2c(c1)-n1cccc1C(=O)N(C)C21CC1 (as salt: hydrochloride) [Example 61, 5-Methyl-9-(2-propylpyridin-3-yl)-spiro[benzo[f]pyrrolo[1,2-a][1,4]diazepine-6,1′-cyclopropan]-4(5H)-one] | 150 to 157
CN1C(=O)c2cccn2-c2cc(-c3cccnc3)ccc2C12CC2 (as salt: hydrochloride) [Example 23, 5-Methyl-9-(pyridin-3-yl)-spiro[benzo[f]pyrrolo[1,2-a][1,4]diazepine-6,1′-cyclopropan]-4(5H)-one] | > 250
CCc1ncccc1-c1ccc2c(c1)-n1cccc1C(=O)N(C)C21CC1 (as salt: hydrochloride) [Example 24, 5-Methyl-9-(2-ethylpyridin-3-yl)-spiro[benzo[f]pyrrolo[1,2-a][1,4]diazepine-6,1′-cyclopropan]-4(5H)-one] | 136 to 143
[2H]C([2H])([2H])N1C(=O)c2cc(C(=O)O)cn2-c2cc(-c3ccc(F)nc3)ccc2C12CC2 [Example 178, 5-(Methyl-d3)-9-(6-fluoro-pyridin-3-yl)-4-oxo-4,5-dihydrospiro[benzo[f]pyrrolo[1,2-a][1,4]diazepine-6,1′-cyclopropane]-2-carboxylic acid] | > 250
CCN1Cc2ccc(-c3cccnc3C)cc2-n2cc(-c3ccccc3)nc2C1=O (as salt: hydrochloride) [Example 167, 5-Ethyl-9-(2-methylpyridin-3-yl)-2-phenyl-5,6-dihydro-4H-benzo[f]imidazo[1,2-a][1,4]diazepin-4-one] | 200 to 220
Cc1cc2n(c1)-c1cc(-c3cccnc3C)ccc1C1(CC1)N(C)C2=O (as salt: hydrochloride) [Example 144] | 162 to 175
Cc1ccc(-c2ccc3c(c2)-n2nc(-c4ccccc4)cc2C(=O)N(C)C32CC2)c(C)n1 (as salt: hydrochloride) [Example 126, 9-(2,6-Dimethyl-pyridin-3-yl)-5-methyl-2-phenyl-spiro[benzo[f]pyrazolo[1,5-a][1,4]diazepine-6,1′-cyclopropan]-4(5H)-one] | > 250
CC1c2ccc(-c3ccc(N(C)C)nc3)cc2-n2cccc2C(=O)N1C (stereo not shown) (as salt: hydrochloride) [Example 219, 9-(6-Dimethylamino-pyridin-3-yl)-5,6-dimethyl-5,6-dihydro-benzo[f]pyrrolo[1,2-a][1,4]diazepin-4-one] | 145 to 162
